Data from patent US20070259856A1, “Method for Activating Trpv4 Channel Receptors by Agonists” (priority 2004, published 2007).
Marks after values point to notes of the source that are not given here.

Experiments:
[1] = molecular target: T1, TRPV4 channel receptor (Homo sapiens, UniProt Q9HBA0); assay: Ca2+ influx in human articular chondrocytes (FlexStation)
[2] = system: aggrecanase; assay: IL-1 induced aggrecanase production, chondrocyte-based aggrecanase peptide cleavage assay; format: cell-based, bovine; conditions: Bos taurus
Source text: Aggrecanases (ADAMTSs), in conjunction with MMPs, degrade aggrecan, one of the major matrix components in articular cartilage. […] 2003; 48(1): 119-133].

[3] = system: human cartilage explants; assay: Aggrecan degradation (GAG, DMMB) in human cartilage explants; format: cell-based; conditions: for GAG Mean ± SEM: cumulative, 21 days
Experimental: Because the progression of aggrecan degradation in response to IL-1 in human cartilage is slower than in bovine cartilage, culture media was removed and replaced with fresh treatments every 2-3 days for approximately 3 weeks. For each timepoint, GAG levels were measured by DMMB assay, and cumulative data released over the entire 3 week culture period was calculated.
The data represents cumulative aggrecan degradation after 21 days in culture. […] In addition, Formula IId caused a concentration-dependent reduction of IL-1-induced aggrecan degradation. […] The estimated IC50's shown in Table 7 are very similar to those IC50's calculated from IL-1-stimulated bovine cartilage.

[4] = system: HEK293 MSRII cells without human TRPV4 vector; assay: Whole cell patch clamp, HEK293 MSRII cells exposed to BacMam virus alone; format: cell-based; conditions: 3 μM
[5] = molecular target: T1, TRPV4 channel receptor; assay: Whole cell patch clamp, HEK293 MSRII cells transduced with human TRPV4 BacMam virus; format: cell-based; design: V5-His (from the vector's name only); expressed in transfected cells; host or cells: HEK293
Source text: Functional, cell-based assays presently utilized to evaluate the activity of TRPV4 channel receptor agonists (e.g., FLIPR) provide an indirect, downstream measure of channel activation or blockage. In order to more directly evaluate a compound's effect on TRPV4 channel receptor, procedures to electrophysiologically record current flow through TRPV4 channels have been established. These procedures utilize HEK293 MSRII cells transiently transduced with 5% human TRPV4 BacMam virus, a standard extracellular physiological saline solution, and a well established, potassium channel-blocking electrode (internal) solution (Vriens et al., PNAS, 2004). Standard whole cell patch clamp techniques were used to maintain cells at a holding potential of 0 mV between inductions of 200 msec, −100 mV to +100 mV ramp protocols every 5 seconds. The inset of FIG. 1 represents the inward and outward current amplitude at −100 mV and +100 mV, respectively, during each ramp protocol prior to (baseline) and throughout the administration of 100 nM Formula IId. The main body of FIG. 1 illustrates the recorded current flow in response to a −100 mV to +100 mV ramp at the five specific times labelled in the inset.

[6] = system: bovine articular cartilage explants; assay: IL-1 induced aggrecan degradation (GAG release, DMMB) in bovine articular cartilage explants; format: cell-based; conditions: Bos taurus; IL-1-stimulated bovine cartilage
Source text: Articular cartilage explants isolated from newborn calves at slaughter were placed in culture, and aggrecan degradation was initiated through stimulation with IL-1. Since aggrecan degradation in this model is believed to be mediated by aggrecanase, TRPV4 channel receptor agonists that are active in the chondrocyte-based aggrecanase peptide assay (Example 11) may also be effective inhibitors in the cartilage explant assay, presumably by blocking aggrecanase production in these tissues.
At the end of the culture period, conditioned media were assayed for glycosaminoglycan (GAG) levels by colorimetric (DMMB) assay as a measure of aggrecan degradation. In bovine explants, IL-1 induced a profound increase in the amount of GAG released into the media during the 3 day culture. When cartilage was treated with IL-1 in combination with Formula IIc, there was a concentration-dependent reduction in GAG release as shown in Table 5.

[7] = molecular target: T2, TRPV4 channel receptor (Bos taurus, UniProt A0A8F4X677); assay: Ca2+ influx in bovine articular chondrocytes (FlexStation); format: cell-based; conditions: bovine chondrocytes
T2 construct: endogenous in cells; host or cells: bovine articular chondrocytes
T2 sequence (A0A8F4X677 1-871): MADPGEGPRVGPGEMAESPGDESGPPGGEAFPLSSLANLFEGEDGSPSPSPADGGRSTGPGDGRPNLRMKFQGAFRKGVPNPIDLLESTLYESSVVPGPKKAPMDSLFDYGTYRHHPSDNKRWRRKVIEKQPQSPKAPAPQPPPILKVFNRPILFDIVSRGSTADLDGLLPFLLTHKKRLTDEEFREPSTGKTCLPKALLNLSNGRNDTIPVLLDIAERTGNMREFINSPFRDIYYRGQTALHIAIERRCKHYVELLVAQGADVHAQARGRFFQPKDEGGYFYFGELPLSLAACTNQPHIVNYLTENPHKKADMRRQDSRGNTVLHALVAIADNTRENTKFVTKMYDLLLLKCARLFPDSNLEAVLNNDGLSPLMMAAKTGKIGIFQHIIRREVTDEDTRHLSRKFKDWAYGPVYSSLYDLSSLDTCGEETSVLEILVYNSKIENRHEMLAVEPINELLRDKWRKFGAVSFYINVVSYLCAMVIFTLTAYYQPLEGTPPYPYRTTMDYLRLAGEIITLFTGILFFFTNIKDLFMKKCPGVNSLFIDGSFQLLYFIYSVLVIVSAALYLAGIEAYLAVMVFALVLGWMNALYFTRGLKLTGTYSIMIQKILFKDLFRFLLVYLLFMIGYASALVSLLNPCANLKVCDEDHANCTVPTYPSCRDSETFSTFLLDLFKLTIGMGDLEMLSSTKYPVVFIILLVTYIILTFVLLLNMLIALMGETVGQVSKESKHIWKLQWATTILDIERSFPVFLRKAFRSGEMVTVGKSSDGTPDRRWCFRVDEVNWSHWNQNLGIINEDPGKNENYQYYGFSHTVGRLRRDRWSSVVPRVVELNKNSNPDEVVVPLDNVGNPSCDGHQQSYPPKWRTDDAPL

[8] = system: bovine articular cartilage explants; assay: IL-1 induced collagen degradation (hydroxyproline) in bovine articular cartilage explants; format: cell-based
Experimental: IL-1 stimulates collagen degradation in bovine articular cartilage explants after extended (−2-3 weeks) exposure to IL-1. Collagen breakdown was evaluated by measuring the levels of hydroxyproline, a major component of hydrolyzed collagen fibrils, using a colorimetric assay that is understood in the art. Bovine articular cartilage was stimulated with IL-1 for 18 days, in the absence or presence of Formula Ib or Formula IId (both at 1 uM). Media was removed and replaced every 2-4 days with fresh IL-1 and compound through day 18. As has been shown previously, aggrecan degradation precedes collagen breakdown in IL-1-stimulated bovine cartilage explants. Once aggrecan depletion had been achieved by day 10, media were analyzed for collagen breakdown using the hydroxyproline assay.

T1 sequence (Q9HBA0 whole entry): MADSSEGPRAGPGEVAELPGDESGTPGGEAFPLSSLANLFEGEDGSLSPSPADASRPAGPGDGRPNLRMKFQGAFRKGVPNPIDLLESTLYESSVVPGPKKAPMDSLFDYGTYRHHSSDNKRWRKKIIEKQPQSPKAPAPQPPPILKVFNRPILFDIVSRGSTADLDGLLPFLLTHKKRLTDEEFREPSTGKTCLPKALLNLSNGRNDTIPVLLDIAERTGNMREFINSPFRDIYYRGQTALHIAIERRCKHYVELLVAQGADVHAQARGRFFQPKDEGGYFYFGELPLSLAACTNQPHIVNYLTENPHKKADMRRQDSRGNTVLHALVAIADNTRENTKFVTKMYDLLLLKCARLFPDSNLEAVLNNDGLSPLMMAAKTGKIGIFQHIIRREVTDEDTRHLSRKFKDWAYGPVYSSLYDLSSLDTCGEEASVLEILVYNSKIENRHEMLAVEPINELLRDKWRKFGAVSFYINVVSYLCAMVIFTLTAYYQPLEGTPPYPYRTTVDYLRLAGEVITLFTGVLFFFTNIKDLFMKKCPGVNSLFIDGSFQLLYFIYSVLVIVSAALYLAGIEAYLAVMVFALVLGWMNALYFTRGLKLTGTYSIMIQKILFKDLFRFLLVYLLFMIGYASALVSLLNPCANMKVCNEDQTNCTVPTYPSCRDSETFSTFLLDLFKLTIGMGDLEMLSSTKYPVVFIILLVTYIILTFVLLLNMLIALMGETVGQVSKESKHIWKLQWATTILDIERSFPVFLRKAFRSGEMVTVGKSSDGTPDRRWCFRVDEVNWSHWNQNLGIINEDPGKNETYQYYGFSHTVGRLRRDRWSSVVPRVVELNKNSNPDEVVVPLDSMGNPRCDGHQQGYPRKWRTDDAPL

EC50 ([1]; Ca Influx - FLEX (human) EC50, human chondrocytes): 0.11 µM | Ca Influx - FLEX (human) % effic. ([1]; human chondrocytes): 179% | IC50 [2]: 0.04 µM | TRPV4 channel receptor-mediated current ([5]; 100 nM, -100 mV to +100 mV ramp): activated a human TRPV4 channel receptor | lowest concentration observed to activate the human TRPV4 channel receptor ([5]; whole cell patch clamp): 10 nM | Ca Influx - FLEX (bovine) % effic. [7]: 79% | EC50 ([7]; read-out: Ca Influx - FLEX (bovine) EC50): 0.12 µM
Compound: CC(C)C[C@H](NC(=O)c1cc2ccccc2s1)C(=O)N[C@@H]1CCCN(S(=O)(=O)c2ccccc2C#N)CC1=O [Formula IId, N-{(1s)-1-[({(4r)-1-[(2-Cyanophenyl)Sulfonyl]-3-Oxohexahydro-1H-Azepin-4-Yl}Amino)Carbonyl]-3-Methylbutyl}-1-Benzothiophene-2-Carboxamide]
inhibition at 0.01 µM ([3]; Homo sapiens, IL-1 (100 ng/ml), 0.01 uM, relative to IL-1 stim. GAG release): 35% | inhibition at 0.1 µM ([3]; Homo sapiens, IL-1 (100 ng/ml), 0.1 uM, relative to IL-1 stim. GAG release): 89% | inhibition at 1 µM ([3]; Homo sapiens, IL-1 (100 ng/ml), 1 uM, relative to IL-1 stim. GAG release): > 100% | inhibition at 0.01 µM ([3]; Homo sapiens, unstimulated, 0.01 uM, relative to control GAG release): 12% | inhibition at 0.1 µM ([3]; Homo sapiens, unstimulated, 0.1 uM, relative to control GAG release): 34% | inhibition at 1 µM ([3]; Homo sapiens, unstimulated, 1 uM, relative to control GAG release): 45% | IC50 ([3]; Homo sapiens, estimated, 3-point concentration response): 0.03 µM | GAG Mean ± SEM ([3]; IL-1 (100 ng/ml), 0.01 uM): 15.9 ± 1.6 µg/mg | GAG Mean ± SEM ([3]; IL-1 (100 ng/ml), 0.1 uM): 8.2 ± 0.5 µg/mg | GAG Mean ± SEM ([3]; IL-1 (100 ng/ml), 1 uM): 4.8 ± 0.5 µg/mg | % inhibition ([3]; IL-1 (100 ng/ml), 1 uM, relative to IL-1 stim. GAG release): 113** % | blocking of aggrecan degradation in unstimulated human cartilage explants ([3]; absence of IL-1): effective in blocking aggrecan degradation | GAG Mean ± SEM ([3]; unstimulated control, 0.01 uM): 5.9 ± 0.3 µg/mg | GAG Mean ± SEM ([3]; unstimulated control, 0.1 uM): 4.4 ± 0.2 µg/mg | GAG Mean ± SEM ([3]; unstimulated control, 1 uM): 3.7 ± 0.3 µg/mg | effect on membrane currents [4]: no measurable effect | IC50 [6]: 0.01 µM | block of IL-1-induced collagen degradation [8]: partially, but effectively, blocked
